Laboratory results as given in the supplement of paper PMC10331698.
± gives the standard deviation of the averaged measurements.

Legend:
Assay in all cases: level (log10 ratio to DMSO vehicle control); higher = higher biomarker level / cell amount than vehicle control
Conditions in all cases: in DMSO
[1] = compound: O=S(=O)(O)C(F)(F)C(F)(F)C(F)(F)C(F)(F)C(F)(F)C(F)(F)C(F)(F)C(F)(F)F [Perfluorooctanesulfonic acid]
Procedure: (§1)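 BioMAP Diversity Plus panel of 12 human primary cell co-culture systems (3C, 4H, LPS, SAg, BT, BF4T, BE3C, CASM3C, HDF3CGF, KF3CT, MyoF, Mphg). Compounds were added 1 h before stimulation and left for 24 h (MyoF 48 h; BT 72 h for soluble read-outs or 6 d for IgG). Biomarkers were read by ELISA, cytotoxicity by SRB, PBMC viability and proliferation by Alamar Blue. Each well value was divided by the mean of 8 DMSO control wells on the same plate and log10 transformed; duplicate blinded samples were tested at 4 concentrations.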

[2] = compound: O=C(O)C(F)(F)C(F)(F)C(F)(F)C(F)(F)C(F)(F)F [Perfluorohexanoic acid]
Procedure: as §1

[3] = compound: FC(F)(F)C(F)(F)C(F)(F)C(F)(F)C(F)(F)C(F)(F)C(F)(F)CCI [1-Iodo-1H,1H,2H,2H-perfluorononane]
Procedure: as §1

[4] = compound: O=C(O)C(F)(F)C(F)(F)C(F)(F)C(F)(F)C(F)(F)C(F)(F)C(F)(F)C(F)(F)C(F)(F)C(F)(F)C(F)(F)C(F)(F)C(F)(F)F [Perfluorotetradecanoic acid]
Procedure: as §1

[5] = compound: C=CC(=O)OCCC(F)(F)C(F)(F)C(F)(F)C(F)(F)F [2-(Perfluorobutyl)ethyl acrylate]
Procedure: as §1

[6] = compound: O=C(O)C(F)(F)C(F)(F)C(F)(F)C(=O)O [Hexafluoroglutaric acid]
Procedure: as §1

[7] = compound: O=S(=O)(O)C(F)(F)C(F)(F)C(F)(F)C(F)(F)C(F)(F)C(F)(F)C(F)(F)C(F)(F)F [Potassium perfluorooctanesulfonate]
Procedure: as §1

Row | Test System | level (log10) ([1]; 6700 nM) | level (log10) ([1]; 20000 nM) | level (log10) ([1]; 60000 nM) | level (log10) ([2]; 6700 nM) | level (log10) ([2]; 20000 nM) | level (log10) ([2]; 60000 nM) | level (log10) ([3]; 6700 nM) | level (log10) ([3]; 20000 nM) | level (log10) ([4]; 6700 nM) | level (log10) ([4]; 20000 nM) | level (log10) ([5]; 6700 nM) | level (log10) ([5]; 20000 nM) | level (log10) ([5]; 60000 nM) | level (log10) ([6]; 6700 nM) | level (log10) ([6]; 20000 nM) | level (log10) ([6]; 60000 nM) | level (log10) ([7]; 6700 nM) | level (log10) ([7]; 20000 nM) | level (log10) ([7]; 60000 nM)
1 | BF4T:MMP-1 | 0.02 ± 0.0014 | 0.029 ± 0.013 | 0.039 ± 0.047 | 0.0005 ± 0.015 | -0.009 ± 0.0071 | -0.0005 ± 0.0078 | 0.001 ± 0.035 | 0.016 ± 0.033 | 0.0015 ± 0.00071 | 0.013 ± 0.0028 | -0.003 ± 0.044 | -0.003 ± 0.051 | 0.047 ± 0.031 | 0.0035 ± 0.013 | 0.0215 ± 0.012 | 0.018 ± 0.0099 | 0.028 ± 0.017 | 0.046 ± 0.0028 | 0.062 ± 0.011
2 | BF4T:MMP-3 | 0.012 ± 0.035 | 0.0625 ± 0.012 | 0.059 ± 0.089 | 0.003 ± 0.024 | -0.0095 ± 0.00071 | 0.0295 ± 0.043 | 0.0185 ± 0.013 | 0.011 ± 0.0014 | 0.027 ± 0.04 | 0.0475 ± 0.066 | -0.008 ± 0.021 | 0.0315 ± 0.052 | 0.0525 ± 0.00071 | -0.0045 ± 0.0092 | -0.0125 ± 0.035 | 0.0175 ± 0.0021 | 0.0175 ± 0.028 | 0.0635 ± 0.026 | 0.087 ± 0.065
3 | BF4T:MMP-9 | 0.02 ± 0.0028 | 0.033 ± 0.0099 | 0.019 ± 0.095 | 0.0215 ± 0.0035 | -0.01 ± 0.027 | 0.0215 ± 0.018 | 0.007 ± 0.044 | -0.0065 ± 0.028 | -0.0165 ± 0.047 | 0 ± 0.035 | -0.0015 ± 0.035 | -0.006 ± 0.057 | -0.013 ± 0.058 | -0.003 ± 0.0014 | -0.0135 ± 0.012 | 0.007 ± 0.0028 | 0.024 ± 0.017 | 0.048 ± 0.02 | 0.0665 ± 0.046
4 | BF4T:PAI-I | -0.002 ± 0.0085 | -0.0135 ± 0.0021 | -0.02 ± 0.052 | 0.011 | 0.004 ± 0.0028 | 0.0145 ± 0.0064 | -0.0005 ± 0.013 | -0.013 ± 0.011 | 0.014 ± 0.0028 | 0.0245 ± 0.029 | -0.006 ± 0.025 | 0.007 ± 0.03 | -0.0255 ± 0.025 | -0.0085 ± 0.022 | -0.002 ± 0.021 | 0.0165 ± 0.011 | 0.0015 ± 0.0092 | -0.0045 ± 0.0078 | 0.007 ± 0.04
5 | BF4T:SRB | -0.0095 ± 0.0092 | -0.0115 ± 0.0021 | -0.0015 ± 0.026 | -0.0025 ± 0.00071 | -0.0095 ± 0.0092 | 0.0105 ± 0.0064 | -0.001 ± 0.0042 | 0.001 ± 0.0042 | 0.0025 ± 0.0092 | 0.001 ± 0.0071 | -0.003 ± 0.0014 | -0.005 | -0.0085 ± 0.0021 | -0.005 ± 0.0028 | -0.0065 ± 0.0021 | -0.0015 ± 0.0078 | -0.01 ± 0.011 | -0.01 ± 0.0099 | -0.002 ± 0.0099
6 | BF4T:tPA | 0.0135 ± 0.013 | -0.0175 ± 0.00071 | 0.0195 ± 0.018 | -0.0045 ± 0.0064 | -0.0035 ± 0.019 | 0.0055 ± 0.013 | 0.0185 ± 0.0064 | -0.0135 ± 0.0064 | -0.0015 ± 0.019 | 0.0015 ± 0.049 | 0.0005 ± 0.023 | -0.035 ± 0.023 | -0.0325 ± 0.00071 | -0.0195 ± 0.018 | -0.0205 ± 0.028 | -0.0045 ± 0.011 | -0.0045 ± 0.0092 | -0.019 ± 0.0028 | 0.0185 ± 0.032
7 | BF4T:uPA | 0.0005 ± 0.016 | 0.0175 ± 0.00071 | 0.0375 ± 0.023 | 0.01 ± 0.0028 | 0.004 | 0.0105 ± 0.0078 | -0.011 ± 0.035 | -0.012 ± 0.033 | 0.0075 ± 0.0078 | 0.017 ± 0.0028 | -0.008 ± 0.028 | -0.009 ± 0.02 | -0.022 ± 0.03 | -0.009 ± 0.016 | -0.0015 ± 0.015 | -0.003 ± 0.0028 | -0.004 ± 0.0028 | 0.01 ± 0.016 | 0.0395 ± 0.043
